Source: ChEMBL document CHEMBL1212896, “Discovery of novel cyanodihydropyridines as potent mineralocorticoid receptor antagonists” (J Med Chem, 2010)
Values after ≈ are worked out from the molar mass of the structure shown. Active and inactive are the calls of the source. The rule behind the calls is not given here.

Experiments:
Glucocorticoid receptor = biological target: T1, Glucocorticoid receptor (Homo sapiens, UniProt P04150); assay: Antagonist activity at glucocorticoid receptor LBD expressed in human HUH7 cells coexpressing GAL4 by luciferase reporter gene assay; assay type: functional, cell-based, Huh-7
T1 sequence (P04150 whole entry): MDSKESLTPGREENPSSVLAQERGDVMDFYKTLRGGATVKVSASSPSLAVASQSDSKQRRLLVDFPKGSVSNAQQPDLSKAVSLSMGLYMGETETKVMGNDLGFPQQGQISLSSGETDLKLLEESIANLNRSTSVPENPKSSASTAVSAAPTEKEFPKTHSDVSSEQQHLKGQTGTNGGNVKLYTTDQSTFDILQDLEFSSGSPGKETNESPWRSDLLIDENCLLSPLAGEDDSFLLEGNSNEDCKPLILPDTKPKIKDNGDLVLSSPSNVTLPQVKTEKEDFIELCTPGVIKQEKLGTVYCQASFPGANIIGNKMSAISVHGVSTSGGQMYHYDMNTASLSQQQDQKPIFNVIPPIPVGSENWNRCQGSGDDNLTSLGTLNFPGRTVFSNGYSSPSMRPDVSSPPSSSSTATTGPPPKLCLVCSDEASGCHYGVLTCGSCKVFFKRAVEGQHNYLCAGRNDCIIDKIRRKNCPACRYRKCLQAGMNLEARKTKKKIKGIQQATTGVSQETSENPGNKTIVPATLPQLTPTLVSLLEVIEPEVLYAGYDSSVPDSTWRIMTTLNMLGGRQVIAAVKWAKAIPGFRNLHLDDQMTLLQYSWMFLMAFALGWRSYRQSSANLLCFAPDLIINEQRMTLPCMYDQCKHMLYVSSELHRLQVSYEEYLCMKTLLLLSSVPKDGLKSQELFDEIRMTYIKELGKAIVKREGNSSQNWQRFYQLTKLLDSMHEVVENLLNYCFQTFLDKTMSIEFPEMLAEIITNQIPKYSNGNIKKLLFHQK

Androgen receptor = biological target: T2, Androgen receptor (Homo sapiens, UniProt P10275); assay: Antagonist activity at androgen receptor LBD expressed in human HUH7 cells coexpressing GAL4 by luciferase reporter gene assay; assay type: functional, cell-based, Huh-7
T2 sequence (P10275 whole entry): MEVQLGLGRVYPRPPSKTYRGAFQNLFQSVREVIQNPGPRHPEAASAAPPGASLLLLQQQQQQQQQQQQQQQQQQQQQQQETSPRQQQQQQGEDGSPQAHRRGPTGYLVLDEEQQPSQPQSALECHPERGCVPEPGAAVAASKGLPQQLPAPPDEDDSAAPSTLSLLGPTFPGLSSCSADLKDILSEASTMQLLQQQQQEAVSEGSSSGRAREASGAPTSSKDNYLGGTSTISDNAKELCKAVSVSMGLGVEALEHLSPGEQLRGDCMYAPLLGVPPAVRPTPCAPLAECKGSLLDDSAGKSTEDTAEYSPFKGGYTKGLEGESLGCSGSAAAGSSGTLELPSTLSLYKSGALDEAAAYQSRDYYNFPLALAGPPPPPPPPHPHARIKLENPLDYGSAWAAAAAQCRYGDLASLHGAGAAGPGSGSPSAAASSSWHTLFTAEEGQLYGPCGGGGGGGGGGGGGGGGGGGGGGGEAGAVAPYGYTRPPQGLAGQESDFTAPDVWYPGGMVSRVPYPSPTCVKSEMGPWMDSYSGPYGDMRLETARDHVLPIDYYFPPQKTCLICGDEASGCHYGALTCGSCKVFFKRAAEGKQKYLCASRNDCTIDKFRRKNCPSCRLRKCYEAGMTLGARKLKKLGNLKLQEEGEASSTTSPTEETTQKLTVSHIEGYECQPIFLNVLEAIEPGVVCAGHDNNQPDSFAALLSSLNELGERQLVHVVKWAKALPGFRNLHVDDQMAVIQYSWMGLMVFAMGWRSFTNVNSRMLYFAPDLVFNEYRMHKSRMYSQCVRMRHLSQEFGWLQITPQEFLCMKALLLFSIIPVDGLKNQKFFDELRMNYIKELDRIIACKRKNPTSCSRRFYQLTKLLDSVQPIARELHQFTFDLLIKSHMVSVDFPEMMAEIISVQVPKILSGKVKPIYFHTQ

Progesterone receptor = biological target: T3, Progesterone receptor (Homo sapiens, UniProt P06401); assay: Antagonist activity at progesterone receptor LBD expressed in human HUH7 cells coexpressing GAL4 by luciferase reporter gene assay; assay type: functional, cell-based, Huh-7
T3 sequence (P06401 whole entry): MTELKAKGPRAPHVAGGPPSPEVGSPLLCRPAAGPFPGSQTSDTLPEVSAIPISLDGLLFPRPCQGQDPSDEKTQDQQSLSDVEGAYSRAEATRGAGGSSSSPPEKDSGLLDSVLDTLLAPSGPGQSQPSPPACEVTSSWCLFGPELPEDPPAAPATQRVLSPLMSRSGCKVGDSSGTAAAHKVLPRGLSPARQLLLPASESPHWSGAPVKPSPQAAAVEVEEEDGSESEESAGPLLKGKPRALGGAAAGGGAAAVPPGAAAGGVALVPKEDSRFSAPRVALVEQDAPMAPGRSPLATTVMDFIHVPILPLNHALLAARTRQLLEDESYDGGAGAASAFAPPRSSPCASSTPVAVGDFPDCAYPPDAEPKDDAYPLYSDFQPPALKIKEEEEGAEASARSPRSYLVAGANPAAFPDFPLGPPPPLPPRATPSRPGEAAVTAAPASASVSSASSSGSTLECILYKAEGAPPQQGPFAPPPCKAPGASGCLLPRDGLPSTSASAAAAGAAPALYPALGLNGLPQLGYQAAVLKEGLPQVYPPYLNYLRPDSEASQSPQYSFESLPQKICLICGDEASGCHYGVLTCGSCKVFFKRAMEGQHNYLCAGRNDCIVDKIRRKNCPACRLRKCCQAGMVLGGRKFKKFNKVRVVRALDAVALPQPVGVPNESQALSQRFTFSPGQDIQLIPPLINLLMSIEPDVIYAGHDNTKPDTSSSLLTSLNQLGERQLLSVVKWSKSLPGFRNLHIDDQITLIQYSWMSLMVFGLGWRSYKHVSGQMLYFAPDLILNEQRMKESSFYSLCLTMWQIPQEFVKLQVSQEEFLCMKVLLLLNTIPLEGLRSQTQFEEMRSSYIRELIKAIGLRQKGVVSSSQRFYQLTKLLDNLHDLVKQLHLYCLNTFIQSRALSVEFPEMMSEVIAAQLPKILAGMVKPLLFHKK

Cytochrome P450 3A4 = Cytochrome P450 3A4 (Homo sapiens, UniProt P08684); assay: Inhibition of CYP3A4; assay type: ADME
Cytochrome P450 2C9 = Cytochrome P450 2C9 (Homo sapiens, UniProt P11712); assay: Inhibition of CYP2C9; assay type: ADME
Cytochrome P450 2D6 = Cytochrome P450 2D6 (Homo sapiens, UniProt P10635); assay: Inhibition of CYP2D6; assay type: ADME
[1] = Solubility of the compound; assay type: physicochemical
[2] = Intrinsic clearance in rat liver microsomes; assay type: ADME, Microsome
[3] = biological target: T4, Mineralocorticoid receptor (Homo sapiens, UniProt P08235)
T4 sequence (P08235 whole entry): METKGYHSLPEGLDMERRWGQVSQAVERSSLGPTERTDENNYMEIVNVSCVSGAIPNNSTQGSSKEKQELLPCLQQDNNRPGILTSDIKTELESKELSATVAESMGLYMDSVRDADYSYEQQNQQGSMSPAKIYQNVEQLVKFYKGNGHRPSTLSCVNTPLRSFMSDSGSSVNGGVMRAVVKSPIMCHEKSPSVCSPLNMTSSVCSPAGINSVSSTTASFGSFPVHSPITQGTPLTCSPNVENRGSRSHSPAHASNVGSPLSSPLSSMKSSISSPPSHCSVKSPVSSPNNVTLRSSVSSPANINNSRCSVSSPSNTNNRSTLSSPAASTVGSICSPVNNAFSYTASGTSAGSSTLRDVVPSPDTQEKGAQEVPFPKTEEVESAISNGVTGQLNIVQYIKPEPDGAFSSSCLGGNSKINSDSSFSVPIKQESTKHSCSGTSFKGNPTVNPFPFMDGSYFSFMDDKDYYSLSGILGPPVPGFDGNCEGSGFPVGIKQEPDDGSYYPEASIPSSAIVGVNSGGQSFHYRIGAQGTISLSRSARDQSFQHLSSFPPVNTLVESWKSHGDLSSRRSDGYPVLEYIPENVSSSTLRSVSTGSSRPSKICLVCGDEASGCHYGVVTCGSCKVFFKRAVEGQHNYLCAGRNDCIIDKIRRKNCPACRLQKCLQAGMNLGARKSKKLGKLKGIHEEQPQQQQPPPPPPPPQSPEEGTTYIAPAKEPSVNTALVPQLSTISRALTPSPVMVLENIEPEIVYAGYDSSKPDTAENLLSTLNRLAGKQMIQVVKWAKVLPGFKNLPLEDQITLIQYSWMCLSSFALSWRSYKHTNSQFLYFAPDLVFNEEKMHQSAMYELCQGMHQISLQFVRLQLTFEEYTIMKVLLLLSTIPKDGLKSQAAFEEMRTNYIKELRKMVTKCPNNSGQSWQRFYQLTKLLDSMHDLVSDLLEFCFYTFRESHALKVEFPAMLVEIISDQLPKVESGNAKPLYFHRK
Description: Antagonist activity at mineralocorticoid receptor LBD expressed in human HUH7 cells coexpressing GAL4 by luciferase reporter gene assay

Rattus norvegicus [4] = assay: Antihypertensive activity in Dahl salt-sensitive rat model assessed as decrease of systolic blood pressure at 100 mg/kg administered with chow diet for 21 days; assay type: functional, organism-based; parameters: dose 100 mg/kg; conditions: Artery
Rattus norvegicus [5] = assay: Antihypertensive activity in Dahl salt-sensitive rat model assessed as decrease of systolic blood pressure at 60 mg/kg, po bid for 21 days; assay type: functional, organism-based; parameters: dose 60 mg/kg; conditions: Artery
Rattus norvegicus [6] = assay: Protection of renal injury in Dahl salt-sensitive rat model assessed as reduction of urinal albumin excretion at 60 mg/kg, po bid for 21 days; assay type: functional, organism-based; parameters: dose 60 mg/kg
Liver microsomes [7] = assay: Metabolic stability in human liver microsomes assessed as compound remaining; assay type: ADME, Microsome
Liver microsomes [8] = assay: Metabolic stability in rat liver microsomes assessed as compound remaining; assay type: ADME, Microsome

Chain of Cytochrome P450 3A4 (P08684 whole entry): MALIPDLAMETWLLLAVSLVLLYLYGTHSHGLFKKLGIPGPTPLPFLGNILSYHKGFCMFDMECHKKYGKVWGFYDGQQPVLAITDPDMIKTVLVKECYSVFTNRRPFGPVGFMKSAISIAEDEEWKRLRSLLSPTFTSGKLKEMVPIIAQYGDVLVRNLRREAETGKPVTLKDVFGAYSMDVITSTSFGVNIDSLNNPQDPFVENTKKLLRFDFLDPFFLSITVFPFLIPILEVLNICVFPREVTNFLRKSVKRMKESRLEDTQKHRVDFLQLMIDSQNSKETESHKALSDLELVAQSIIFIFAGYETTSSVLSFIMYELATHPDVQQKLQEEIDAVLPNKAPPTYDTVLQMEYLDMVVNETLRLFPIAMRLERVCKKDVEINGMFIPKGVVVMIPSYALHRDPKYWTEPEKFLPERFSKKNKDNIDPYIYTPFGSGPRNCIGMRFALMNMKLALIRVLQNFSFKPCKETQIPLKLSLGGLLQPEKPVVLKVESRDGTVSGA
Chain of Cytochrome P450 2C9 (P11712 whole entry): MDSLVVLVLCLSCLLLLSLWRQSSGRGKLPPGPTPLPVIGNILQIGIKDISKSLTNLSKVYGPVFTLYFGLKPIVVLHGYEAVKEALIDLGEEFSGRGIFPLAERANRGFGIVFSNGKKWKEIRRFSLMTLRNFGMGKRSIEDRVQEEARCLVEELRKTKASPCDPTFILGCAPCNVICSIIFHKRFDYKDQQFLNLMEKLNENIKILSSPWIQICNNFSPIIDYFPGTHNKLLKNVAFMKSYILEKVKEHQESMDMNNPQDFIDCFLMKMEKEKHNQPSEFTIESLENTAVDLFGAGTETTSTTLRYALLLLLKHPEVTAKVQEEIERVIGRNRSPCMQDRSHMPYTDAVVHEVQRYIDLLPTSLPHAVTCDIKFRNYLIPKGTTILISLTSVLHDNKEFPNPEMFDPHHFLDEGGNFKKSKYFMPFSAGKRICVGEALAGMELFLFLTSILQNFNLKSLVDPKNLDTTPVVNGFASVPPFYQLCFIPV
Chain of Cytochrome P450 2D6 (P10635 whole entry): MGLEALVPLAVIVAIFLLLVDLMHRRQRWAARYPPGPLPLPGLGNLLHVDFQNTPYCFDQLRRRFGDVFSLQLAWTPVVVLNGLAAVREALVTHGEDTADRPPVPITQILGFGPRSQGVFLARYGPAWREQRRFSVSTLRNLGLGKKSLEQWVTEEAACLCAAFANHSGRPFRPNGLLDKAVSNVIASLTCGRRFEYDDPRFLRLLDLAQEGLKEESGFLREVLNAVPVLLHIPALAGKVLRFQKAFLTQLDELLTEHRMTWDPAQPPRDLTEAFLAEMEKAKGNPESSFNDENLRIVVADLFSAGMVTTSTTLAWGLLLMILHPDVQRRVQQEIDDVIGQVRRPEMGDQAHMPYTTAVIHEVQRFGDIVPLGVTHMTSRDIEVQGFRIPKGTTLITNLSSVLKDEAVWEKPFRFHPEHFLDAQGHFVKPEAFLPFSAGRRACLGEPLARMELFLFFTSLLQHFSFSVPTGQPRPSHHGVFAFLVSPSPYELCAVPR

Row | IC50 (Androgen receptor) | CLint scaled [2] | SMILES | IC50 (Glucocorticoid receptor) | IC50 (Progesterone receptor) | IC50 (Cytochrome P450 3A4) | IC50 (Cytochrome P450 2C9) | IC50 (Cytochrome P450 2D6) | solubility [1] | IC50 [3] | Activity (Rattus norvegicus [4]) | Activity (Rattus norvegicus [5]) | Activity (Rattus norvegicus [6]) | Stability (Liver microsomes [7]) | Stability (Liver microsomes [8])
1 | 0.3 µM | 0.523 L/h/kg | COC(=O)C1=C(Cn2cnnn2)NC(C)=C(C#N)[C@H]1c1ccc(F)cc1Cl | 1 µM | 7.2 µM | > 10 µM | > 10 µM | > 10 µM | 32 µM (≈ 12.4 µg/mL) | 0.052 µM | – | – | – | – | –
2 | – | – | COC(=O)[C@@H]1CC2=CC(=O)CC[C@]2(C)[C@@]23O[C@@H]2C[C@@]2(C)[C@@H](CC[C@@]24CCC(=O)O4)[C@H]13 | – | – | – | – | – | – | – | Active | Active | Active | – | –
3 | – | – | COC(=O)C1=C(Cn2cccn2)NC(C)=C(C#N)C1c1ccc(F)cc1Cl (stereo unspecified) | 3.3 µM | 5.5 µM | 1.1 µM | 0.6 µM | > 10 µM | > 5 µM | 0.054 µM | – | – | – | 2% | 31%
